According to patent publication US20130096012A1, “METHOD AND KIT FOR IDENTIFYING A TRANSLATION INITIATION SITE ON AN MRNA” (CORNELL UNIVERSITY, priority 2011, published 2013):

Columns and labels:
[1] = test system: HEK293 cells; assay: Polysome profiling by sucrose gradient sedimentation of drug-treated cells; type: cell-based, Human; settings: 100 μM CHX or 50 μM LTM, 30 min, compared to no-drug treatment (DMSO), FIG. 7
Description: FIG. 7 is a series of graphs showing polysome profile analysis in cells treated with ribosome E-site translation inhibitors. In particular, HEK293 cells were pre-treated with equal volume of DMSO, 100 μM CHX, or 50 μM LTM for 30 min followed by sucrose gradient sedimentation. Both 80S monosome and polysome peaks are indicated.
HEK293 or MEF cells were treated with 100 μM CHX, 50 μM LTM, 2 μg/ml harringtonine or DMSO at 37° C. for 30 min. Cells were lysed in polysome buffer and cleared lysates were separated by sedimentation through sucrose gradients. Collected polysome fractions were digested with RNase I and the RPF fragments were size selected and purified by gel extraction. […] The trimmed RPF reads with final lengths of 26-29 nt were aligned to the RefSeq transcript sequences by Bowtie-0.12.7 allowing one mismatch. A TIS position on individual transcript was called if the normalized LTM reads density at the every nucleotide position subtracting with that of CHX was well above the background. In analysis of non-coding RNA, only reads unique to single ncRNA were used. […]
Sucrose solution was prepared in polysome buffer (pH 7.4, 10 mM HEPES, 100 mM KCl, 5 mM MgCl2). […] Separated samples were fractionated at 0.750 ml/min through a fractionation system (Isco) that continually monitored OD254 values. […]

[2] = test system: HEK293 cells; assay: Ribosome profiling (deep sequencing of ribosome-protected mRNA fragments, GTI-seq) of drug-treated cells; type: cell-based, Human; settings: 30 min, FIG. 1C; for distribution of RPF reads relative to the annotated start codon: 100 μM CHX, 50 μM LTM or 2 μg/ml harringtonine, metagene analysis, 1D
Description: FIGS. 1A-D show the experimental strategy of GTI-seq using ribosome E-site translation inhibitors. Specifically, FIG. 1A is a schematic diagram of the experimental design for GTI-seq. Translation inhibitors cycloheximide (“CHX”) and lactimidomycin (“LTM”) bind to the ribosome E-site, resulting in inhibition of translocation. While CHX binds to all translating ribosomes (FIG. 1A, left panel), LTM preferably incorporates into the initiating ribosomes when the E-site is free of tRNA (FIG. 1A, right panel). FIG. 1B is a schematic illustration showing ribosome profiling using CHX and LTM side-by-side, which allows distinguishing the initiating ribosome from the elongating one. FIG. 1C is a graph showing data related to HEK293 cells being treated with either DMSO, 100 μM CHX, or 50 μM LTM for 30 min before ribosome profiling. Normalized RPF reads were averaged across the entire transcriptome, aligned at either their start site or stop codon. FIG. 1D presents two graphs showing metagene analysis of RPFs obtained from HEK293 cells treated with either harringtonine (FIG. 1D, left panel) or LTM (FIG. 1D, right panel). All mapped reads were aligned at the annotated start codon AUG, and the reads density at each nucleotide position was averaged using the P-site of RPFs.
HEK293 or MEF cells were treated with 100 μM CHX, 50 μM LTM, 2 μg/ml harringtonine or DMSO at 37° C. for 30 min. Cells were lysed in polysome buffer and cleared lysates were separated by sedimentation through sucrose gradients. Collected polysome fractions were digested with RNase I and the RPF fragments were size selected and purified by gel extraction. After the construction of sequencing library from these fragments, deep sequencing was performed using IlluminaHiSEQ. The trimmed RPF reads with final lengths of 26-29 nt were aligned to the RefSeq transcript sequences by Bowtie-0.12.7 allowing one mismatch. A TIS position on individual transcript was called if the normalized LTM reads density at the every nucleotide position subtracting with that of CHX was well above the background. In analysis of non-coding RNA, only reads unique to single ncRNA were used. To experimentally validate the identified TIS codons, specific genes encompassing both the 5′UTR and the CDS were amplified by RT-PCR from total cellular RNAs extracted from HEK293 cells. The resultant cDNAs were cloned into pcDNA3.1 containing c-myc tag at the COOH-terminus. After transfection into HEK293 cells, whole cell lysates were used for immunoblotting using anti-myc antibody.
Human HEK293 and mouse embryonic fibroblast (“MEF”) were maintained in Dulbecco's Modified Eagle's Medium (“DMEM”) with 10% fetal bovine serum (“FBS”). Cycloheximide was purchased from Sigma and harringtonine from LKT Laboratories. […]

Row | SMILES | effect on polysome profile (80S monosome and polysome peaks) [1] | distribution of RPF reads relative to the annotated start codon [2] | effect on ribosome (RPF) density at the stop codon ([2]; 50 μM LTM, versus untreated cells or CHX)
1 | C[C@@H]1C[C@@H]([C@H](O)CC2CC(=O)NC(=O)C2)C(=O)[C@@H](C)C1 [CHX, cycloheximide] | slightly stabilized the polysomes | an excess of RPFs at the beginning of ORFs in addition to the body of CDS | –
2 | COC(=O)C[C@](O)(CCC(C)(C)O)C(=O)O[C@@H]1C(OC)=C[C@]23CCCN2CCc2cc4c(cc2[C@H]13)OCO4 [harringtonine] | – | a substantial fraction of RPFs accumulated in regions downstream of the start codon | –
3 | C/C(=C\[C@H](C)C(=O)C[C@H](O)CC1CC(=O)NC(=O)C1)[C@@H]1OC(=O)/C=C/CC/C=C/C=C\[C@@H]1C [LTM, lactimidomycin] | large increase in monosome accompanied by a depletion of polysomes | pronounced single peak located at the −12 nucleotide (nt) position relative to the annotated start codon | eliminated the excess of ribosomes seen at the stop codon
